According to PubChem BioAssay (NCI):
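Protocol summary: plate cells (96-well), add compound at 5 concentrations, incubate 48 h, interpolate endpoints linearly. TGI: concentration producing complete growth inhibition.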

How the values were obtained:
Test in all cases: NCI tumour cell line growth inhibition, 48 h
DMS 273 small cell lung = tested on: DMS 273 small cell lung
KM20L2 colon = tested on: KM20L2 colon
DLD-1 colon = tested on: DLD-1 colon
DMS 114 small cell lung = tested on: DMS 114 small cell lung
HOP-18 NSCLC = tested on: HOP-18 NSCLC
SNB-78 CNS = tested on: SNB-78 CNS
M19-MEL melanoma = tested on: M19-MEL melanoma

Measured: TGI

COc1ccc(C2SCC(=O)N2NC(=O)c2ccncc2)cc1F (stereo unspecified)
not listed: M19-MEL melanoma
> 100 µM: all other assays above

CC(C)OP(=O)(OC(C)C)c1nc(-c2ccccc2)n(-c2ccc([N+](=O)[O-])cc2)n1
not listed: HOP-18 NSCLC | SNB-78 CNS
> 100 µM: all other assays above
